Results reported in patent US11446300B2 (Alexion Pharmaceuticals, Inc., priority 2015, dated 2022).
pIC50: −log10 of the molar value. Read-outs that look alike come from different tables or passages of the source.

Columns and labels:
[1] = test system: DLBCL cell lines; assay: Panel of 15 DLBCL cell lines: viability, caspase 3 cleavage and Edu incorporation; assay type: cell-based
Protocol: Cell lines, purchased from ATCC, were screened using the CellTiter Glo (Promega) assay in 384 well plates using a ten-point concentration response curve to generate IC50's. Each IC50 value is an average of at least four replicate experiments. Subsequent analysis using a FACS based caspase 3 cleavage detection kit (BD Biosciences) and Edu incorporation were performed.

[2] = test system: TOLEDO; assay: Combination synergy, Cell Titer Glo, 72 hours; assay type: cell-based; settings: Homo sapiens
Protocol: (§1) Synergistic anti-tumor activity in DLBCL cell lines was determined using the Cell Titer Glo assay. Briefly, 5,000 cells were plated in 96 well plates in complete tissue culture media. […] Cells were incubated with or without drug for 72 hours in a 37° C. tissue culture incubator prior to evaluation by CellTiter Glo as per the manufacturer protocol (Promega). Synergy was evaluated by calculating combination index score, as described elsewhere (Jacquement et al, Molecular Cancer 2012) following IC50 determination using Prism software. The compounds are commercially available or are made according to synthetic methods known to those skilled in the art.

[3] = test system: U2932; assay: Combination synergy, Cell Titer Glo, 72 hours; assay type: cell-based; settings: Homo sapiens
Protocol: as §1

[4] = test system: SYK and JAK signaling; assay: Phase I study, inhibition of SYK and JAK in whole blood assays; assay type: in vivo, human
Protocol: (§2) Pharmacokinetics (“PK”), pharmacodynamics (“PD”), and safety were monitored. Response was assessed by standard criteria. The level of inhibition of SYK and JAK was determined using a variety of whole blood assays measuring signaling via receptors for the B-cell antigen, IL2, IL4, IL6, and GM-CSF. Serum markers of tumor burden, including CCL3, CCL4, and other markers of inflammation (02M and CRP), were also being measured.

[5] = test system: LY10 (OCI-LY10); assay: DLBCL cell line viability, CellTiter Glo, ten-point curve; assay type: cell-based
[6] = test system: NFκB; assay: CD40L-induced NFκB activation in DLBCL cell lines; assay type: cell-based
Text: Consistent with the loss of IκBα in RCK8, the cell line presented with enhanced basal NFκB activity. […] […] We then attempted to knock IκBα down in cerdulatinib-sensitive cell lines using siRNA to determine if resistance to SYK/JAK inhibition could be generated. […] Ligation of CD40 leads to a transient down-regulation of IκBα at the protein level. […] The impact on NFκB activation was much longer, however, and of 7 cerdulatinib-sensitive cell lines tested, 5 were made resistant by co-culture with CD40L. Associated with this resistance was not only induction of NFκB, but also pERK Y204, pAKT S473, and pSTAT3 Y705.

[7] = test system: OCI-Ly18; assay: Combination synergy, Cell Titer Glo, 72 hours; assay type: cell-based; settings: Homo sapiens, OCI-Ly18, 72 h
Protocol: as §1, with “calculating a” for “calculating”

[8] = test system: RCK8; assay: DLBCL cell line viability, CellTiter Glo, ten-point curve; assay type: cell-based
[9] = test system: IL4 signaling; assay: Phase I study, whole blood assay of IL4 receptor signaling; assay type: in vivo, human; settings: extrapolated from PK/PD fit of all data
Protocol: as §2

[10] = test system: DHL5; assay: DLBCL cell line viability, CellTiter Glo, ten-point curve; assay type: cell-based; settings: read-out: IC50 of Kinase Inhibitor in Cell Titer Glo Assay
[11] = Phase I study, safety and adverse events; assay type: in vivo, human; settings: for tolerability: patients with relapsed/refractory lymphoid malignancies
Protocol: A first-in-human study of cerdulatinib in patients with relapsed/refractory CLL/SLL or B-cell non-Hodgkin's lymphoma (NHL) was carried out. A 3+3 dose escalation study with 28-day cycles was carried out; the doses studied ranged from 15 mg to 65 mg once daily and up to 45 mg twice daily. Patients received a single dose on day 1 for 72 hour PK evaluation. Continuous dosing was initiated on day 4. 43 patients with CLL/SLL or B cell NHL were dosed. Median age was 67 years (range 23-85) and median prior therapies (tx) was 3 (range 1-8).
as §2

[12] = test system: DHL8; assay: DLBCL cell line viability, CellTiter Glo, ten-point curve; assay type: cell-based; settings: read-out: IC50 of Kinase Inhibitor in Cell Titer Glo Assay
[13] = test system: anti-IgM induced signalling; assay: B cell receptor induced signalling in CLL cells, immunoblotting and flow cytometry; assay type: cell-based, human; settings: pre-treatment
Protocol: Isolated CLL cells were cultured in RPMI-1640 with 15% fetal bovine serum (Gibco, Grand Island, N.Y., USA), penicillin (100 IU), and streptomycin (100 μg/mL), at a density of 1×10^7 cells/mL in the presence or absence of […] CpG, 100 ng/mL CD40L, 10 ng/mL IL-4. Anti-IgM stimulation was conducted with plate-bound anti-IgM (10 μg/mL). CLL cells were stimulated with 10 ng/mL IL-6 (R&D Systems, Minneapolis, Minn.), to detect the phosphorylation of JAK1/JAK2 (Cell Signaling Technology, Danvers, Mass.) and STAT3 (Cell Signaling Technology, Danvers, Mass., USA).

[14] = test system: LY18; assay: DLBCL cell line viability, CellTiter Glo, ten-point curve; assay type: cell-based; settings: read-out: IC50 of Kinase Inhibitor in Cell Titer Glo Assay
[15] = treatment emergent AEs ≥grade 3 deemed related to study

For CCS(=O)(=O)N1CCN(c2ccc(Nc3ncc(C(N)=O)c(NC4CC4)n3)cc2)CC1 [Cerdulatinib, 4-(cyclopropylamino)-2-(4-(4-(ethylsulfonyl)piperazin-1-yl)phenylamino)pyrimidine-5-carboxamide], the “anti-tumor activity in DLBCL cell lines bearing mutations to CARD11, MYD88, and A20” value [1] was “maintained anti-tumor activity”, the “cell lines that underwent apoptosis” value ([1]; panel of 15 cell lines, ABC and GCB subtypes) was 9 and the “cell lines completely resistant” value ([1]; screen of 15 DLBCL cell lines) was 3. The pIC50 [2] was 5.29, the pIC50 ([3]; U2932, 72 h, read-out: IC50) was 5.43 and the pIC50 ([3]; U2932 cell line, read-out: IC50 value) was 5.43. The “inhibition of SYK and JAK at SS Cmin, peripheral blood assays” value ([4]; 45 mg BID) was “complete inhibition”, the inhibition at 65 mg ([4]; Homo sapiens, 24 h, 65 mg dose, day 1 of cycle 1, read-out: inhibition of SYK/JAK and serum inflammation markers) was 80 to 90% and the “inhibition of SYK and JAK signaling in peripheral blood (steady-state Cmin to Cmax)” value ([4]; QD dosing of 40-100 mg) was 50 to 100%. For the same compound, the “response of cell line” value ([5]; LY10 (OCI-LY10), CD79 mutation) was “sensitive”, the pIC50 ([5]; LY10 cell line, read-out: IC50 of Kinase Inhibitor in Cell Titer Glo Assay) was 6.54 and the “CD40L-induced NFκB activation” value [6] was “not inhibited”. The pIC50 [7] was 5.88, the pIC50 ([8]; Homo sapiens, RCK8 cell line, read-out: IC50 of Kinase Inhibitor in Cell Titer Glo Assay) was 4.81 and the “response of cell line” value ([8]; RCK8) was “resistant”. The inhibition at 15 mg ([9]; Homo sapiens, 15 mg/day, read-out: % Inh. IL4 (Cmin − Cmax)) was 16 to 42%, the inhibition at 30 mg ([9]; Homo sapiens, 30 mg/day, read-out: % Inh. IL4 (Cmin − Cmax)) was 26 to 57% and the inhibition at 100 mg ([9]; Homo sapiens, 100 mg/day (one patient), read-out: % Inh. IL4 (Cmin − Cmax)) was 41 to 72%. The “% Inh. IL4 (Cmin − Cmax)” value ([9]; printed on the 40 mg/day line (45-65 mg/day lines empty)) was 63 − 78%, the pIC50 [10] was 6.51 and the dose limiting toxicities ([11]; 45 mg BID, grade 3 pancreatitis and grade 3 fatigue) was 2. The tolerability [11] was “well-tolerated”, the tolerability ([11]; listed as cerdulatinib) was “well tolerated” and the “patients with abdominal pain” value [11, 15] was 2. The patients with anemia [11, 15] was 3, the patients with fatigue [11, 15] was 5 and the patients with neutropenia [11, 15] was 3. For the same compound, the “patients with neutrophil count decrease” value [11, 15] was 2, the patients with pneumonia [11, 15] was 2 and the pIC50 [12] was 5.51. For the same compound, the “soluble and immobilised anti-IgM induced signalling pathways” value [13] was “able to inhibit” and the pIC50 [14] was 6.00.
